The assay deals with BCL-2 recombinant protein (Homo sapiens, UniProt P10415). Kind of assay: Cell free Bcl-2:Bak affinity assay (Bcl-2 Bak), HTRF competition of FAM-Bak peptide. It counts as binding. Particulars: 4 nM BCL-2 recombinant protein, 100 nM FAM-Bak; for pIC50: 10-concentration IC50 mode, read-out: potency (IC50); for inhibition at 1 µM: 1 μM compound, read-out: potency (% inhibition at 1 μM). In a few lines:
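Compounds in 10-point 3-fold dilution preincubated 10 min at RT with 4 nM GST-BCL-2 (20 mM K phosphate pH 7.5, 50 mM NaCl, 1 mM EDTA, 0.005% Triton X-100), then 100 nM FAM-Bak 10 min, anti-GST-Tb added, 60 min RT dark. HTRF read; % inhibition vs DMSO and positive control, IC50 from curve fit.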
A general note: TR-FRET usually uses a lanthanide donor and a delayed reading to cut background.

pIC50: −log10 of the molar value.

Sequence of BCL-2 recombinant protein (P10415 whole entry): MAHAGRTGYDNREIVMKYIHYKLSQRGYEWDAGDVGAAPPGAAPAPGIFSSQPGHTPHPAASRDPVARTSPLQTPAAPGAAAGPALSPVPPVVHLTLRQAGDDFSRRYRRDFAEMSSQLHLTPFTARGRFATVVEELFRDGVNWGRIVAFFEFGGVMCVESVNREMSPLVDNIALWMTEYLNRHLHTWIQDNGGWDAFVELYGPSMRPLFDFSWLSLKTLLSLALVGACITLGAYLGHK

For the compound `Cc1cc(S(C)(=O)=O)cc(C(=O)NS(=O)(=O)c2ccc(N3CCN(CC4=C(c5ccc(Cl)cc5)CC(C)(C)CC4)CC3)cc2Oc2cnc3[nH]ccc3c2)n1` [Example 97, N-[4-[4-[[2-(4-Chlorophenyl)-4,4-dimethylcyclohexen-1-yl]methyl]piperazin-1-yl]-2-(1H-pyrrolo[2,3-b]pyridin-5-yloxy)phenyl]sulfonyl-6-methyl-4-methylsulfonylpyridine-2-carboxamide], the pIC50 is under 6.00.
For `CC1(C)CCC(CN2CCN(c3ccc(S(=O)(=O)NC(=O)c4ccc(COc5ccccc5)c([N+](=O)[O-])c4)cc3)CC2)=C(c2ccc(Cl)cc2)C1` [Example 52, N-[4-[4-[[2-(4-chlorophenyl)-4,4-dimethylcyclohexen-1-yl]methyl]piperazin-1-yl]phenyl]sulfonyl-3-nitro-4-(phenoxymethyl)benzamide], the inhibition at 1 µM lay within 50 to 90%.
In the case of `Cc1cc(C(=O)NS(=O)(=O)c2ccc(N3CCN(CC4=C(c5ccc(Cl)cc5)CC(C)(C)CC4)CC3)cc2)[nH]n1` [Example 14, N-([4-[4-[[2-(4-chlorophenyl)-4,4-dimethylcyclohexen-1-yl]methyl]piperazin-1-yl]phenyl]sulfonyl)-3-methyl-1H-pyrazole-5-carboxamide], the inhibition at 1 µM fell in the range of 50 to 90%.
Turning to `CCNc1c([N+](=O)[O-])cc(C(=O)NS(=O)(=O)c2ccc(N3CCN(CC4=C(c5ccc(Cl)cc5)CC(C)(C)CC4)CC3)cc2)c(Cl)c1C` [Example 43, 2-chloro-N-[4-[4-[[2-(4-chlorophenyl)-4,4-dimethylcyclohexen-1-yl]methyl]piperazin-1-yl]phenyl]sulfonyl-4-(ethylamino)-3-methyl-5-nitrobenzamide], the pIC50 was 6.00 to 7.00.
The same measure, in the same setting: in the case of `Cc1cc([N+](=O)[O-])cc(C(=O)NS(=O)(=O)c2ccc(N3CCN(CC4=C(c5ccc(Cl)cc5)CC(C)(C)CC4)CC3)cc2Oc2cnc3[nH]ccc3c2)n1` [Example 66, N-[4-[4-[[2-(4-Chlorophenyl)-4,4-dimethylcyclohexen-1-yl]methyl]piperazin-1-yl]-2-(1H-pyrrolo[2,3-b]pyridin-5-yloxy)phenyl]sulfonyl-6-methyl-4-nitropyridine-2-carboxamide] it was 7.00 to 8.00.
For the compound `CC1(C)CCC(CN2CCN(c3ccc(S(=O)(=O)NC(=O)c4ccc([N+](=O)[O-])c(OCc5ccccc5)c4)cc3)CC2)=C(c2ccc(Cl)cc2)C1` [Example 40, 3-(benzyloxy)-N-([4-[4-[[2-(4-chlorophenyl)-4,4-dimethylcyclohexen-1-yl]methyl]piperazin-1-yl]phenyl]sulfonyl)-4-nitrobenzamide], the inhibition at 1 µM lay within 50 to 90%.
Turning to `CCOc1c([N+](=O)[O-])cc(C(=O)NS(=O)(=O)c2ccc(N3CCN(CC4=C(c5ccc(Cl)cc5)CC(C)(C)CC4)CC3)cc2Oc2cnc3[nH]ccc3c2)c(Cl)c1C` [Example 102, 2-chloro-N-[4-[4-[[2-(4-chlorophenyl)-4,4-dimethylcyclohexen-1-yl]methyl]piperazin-1-yl]-2-(1H-pyrrolo[2,3-b]pyridin-5-yloxy)phenyl]sulfonyl-4-ethoxy-3-methyl-5-nitrobenzamide], the negative-log IC50 (pIC50) was 6.00 to 7.00.
Consider `CC1(C)CCC(CN2CCN(c3ccc(S(=O)(=O)NC(=O)c4ccc(F)c(-c5cnc6c(c5)CC(=O)N6)n4)cc3)CC2)=C(c2ccc(Cl)cc2)C1` [Example 47, N-[4-[4-[[2-(4-chlorophenyl)-4,4-dimethylcyclohexen-1-yl]methyl]piperazin-1-yl]phenyl]sulfonyl-5-fluoro-6-(2-oxo-2,3-dihydro-1H-pyrrolo[2,3-b]pyridin-5-yl)pyridine-2-carboxamide], for which the inhibition at 1 µM was 50 to 90%.
As to `CC1(C)CCC(CN2CCN(c3ccc(S(=O)(=O)NC(=O)c4ccc([N+](=O)[O-])c(COc5ccc(Cl)cc5)c4)cc3)CC2)=C(c2ccc(Cl)cc2)C1` [Example 38, N-([4-[4-[[2-(4-chlorophenyl)-4,4-dimethylcyclohexen-1-yl]methyl]piperazin-1-yl]phenyl]sulfonyl)-3-((4-chlorophenoxy)methyl)-4-nitrobenzamide], the negative logarithm of the IC50 (pIC50) is 7.00 to 8.00.
With `CC1(C)CCC(CN2CCN(c3ccc(S(=O)(=O)NC(=O)c4ccc(F)c(OCc5ccccc5)c4)cc3)CC2)=C(c2ccc(Cl)cc2)C1` [Example 53, 3-(benzyloxy)-N-[4-[4-[[2-(4-chlorophenyl)-4,4-dimethylcyclohexen-1-yl]methyl]piperazin-1-yl]phenyl]sulfonyl-4-fluorobenzamide], the inhibition at 1 µM is 50 to 90%.
As to `Cc1cccc(COc2cccc(C(=O)NS(=O)(=O)c3ccc(N4CCN(CC5=C(c6ccc(Cl)cc6)CC(C)(C)CC5)CC4)cc3)c2)c1` [Example 34, N-([4-[4-[[2-(4-chlorophenyl)-4,4-dimethylcyclohexen-1-yl]methyl]piperazin-1-yl]phenyl]sulfonyl)-3-((3-methylbenzyl)oxy)benzamide], the inhibition at 1 µM was in the range of 50 to 90%.
The same measure, in the same setting: in the case of `Cc1nn(C)c(C)c1-c1nc(C(=O)NS(=O)(=O)c2ccc(N3CCN(CC4=C(c5ccc(Cl)cc5)CC(C)(C)CC4)CC3)cc2)ccc1F` [Example 44, N-[4-[4-[[2-(4-chlorophenyl)-4,4-dimethylcyclohexen-1-yl]methyl]piperazin-1-yl]phenyl]sulfonyl-5-fluoro-6-(1,3,5-trimethylpyrazol-4-yl)pyridine-2-carboxamide] it was 50 to 90%.
On to `Cc1c(Cl)c(C(=O)NS(=O)(=O)c2ccc(N3CCN(CC4=C(c5ccc(Cl)cc5)CC(C)(C)CC4)CC3)cc2Oc2cnc3[nH]ccc3c2)cc([N+](=O)[O-])c1OCC1COC1` [Example 103, 2-chloro-N-[4-[4-[[2-(4-chlorophenyl)-4,4-dimethylcyclohexen-1-yl]methyl]piperazin-1-yl]-2-(1H-pyrrolo[2,3-b]pyridin-5-yloxy)phenyl]sulfonyl-3-methyl-5-nitro-4-(oxetan-3-ylmethoxy)benzamide], for which the negative logarithm of the IC50 (pIC50) is 7.00 to 8.00.
Take `COc1ccccc1C(=O)NS(=O)(=O)c1ccc(N2CCN(CC3=C(c4ccc(Cl)cc4)CC(C)(C)CC3)CC2)cc1` [Example 11, N-([4-[4-[[2-(4-chlorophenyl)-4,4-dimethylcyclohexen-1-yl]methyl]piperazin-yl]phenyl]sulfonyl)-2-methoxybenzamide]: the inhibition at 1 µM was in the range of 50 to 90%.
As for `CC1(C)CCC(CN2CCN(c3ccc(S(=O)(=O)NC(=O)c4ccc(CNC5CCOCC5)c([N+](=O)[O-])c4)c(Oc4cnc5[nH]ccc5c4)c3)CC2)=C(c2ccc(Cl)cc2)C1` [Example 96, N-[4-[4-[[2-(4-chlorophenyl)-4,4-dimethylcyclohexen-1-yl]methyl]piperazin-1-yl]-2-(1H-pyrrolo[2,3-b]pyridin-5-yloxy)phenyl]sulfonyl-3-nitro-4-[(oxan-4-ylamino)methyl]benzamide], the negative logarithm of the IC50 (pIC50) was 7.00 to 8.00.
Consider `CC1(C)CCC(CN2CCN(c3ccc(S(=O)(=O)NC(=O)c4ccc(F)c(-n5ccnc5)n4)cc3)CC2)=C(c2ccc(Cl)cc2)C1` [Example 46, N-[4-[4-[[2-(4-chlorophenyl)-4,4-dimethylcyclohexen-1-yl]methyl]piperazin-1-yl]phenyl]sulfonyl-5-fluoro-6-(1H-imidazol-1-yl)pyridine-2-carboxamide], for which the inhibition at 1 µM is 50 to 90%.
In the case of `CC1(C)CCC(CN2CCN(c3ccc(S(=O)(=O)NC(=O)c4ccc(Cl)c(Cl)n4)c(Oc4cnc5[nH]ccc5c4)c3)CC2)=C(c2ccc(Cl)cc2)C1` [Example 68, 5,6-Dichloro-N-[4-[4-[[2-(4-chlorophenyl)-4,4-dimethylcyclohexen-1-yl]methyl]piperazin-1-yl]-2-(1H-pyrrolo[2,3-b]pyridin-5-yloxy)phenyl]sulfonylpyridine-2-carboxamide], the pIC50 was 7.00 to 8.00.
As for `CC1(C)CCC(CN2CCN(c3ccc(S(=O)(=O)NC(=O)Cc4ccccc4F)cc3)CC2)=C(c2ccc(Cl)cc2)C1` [Example 30, N-([4-[4-[[2-(4-chlorophenyl)-4,4-dimethylcyclohexen-1-yl]methyl]piperazin-1-yl]phenyl]sulfonyl)-2-(2-fluorophenyl)acetamide], the inhibition at 1 µM was in the range of 50 to 90%.
Consider `CC1(C)CCC(CN2CCN(c3ccc(S(=O)(=O)NC(=O)c4ccc(F)c(Br)n4)c(Oc4cnc5[nH]ccc5c4)c3)CC2)=C(c2ccc(Cl)cc2)C1` [Example 67, N-[4-[4-[[2-(4-chlorophenyl)-4,4-dimethylcyclohexen-1-yl]methyl]piperazin-1-yl]-2-(1H-pyrrolo[2,3-b]pyridin-5-yloxy)phenyl]sulfonyl-6-bromo-5-fluoropyridine-2-carboxamide], for which the pIC50 is 7.00 to 8.00.
Consider `CC1(C)CCC(CN2CCN(c3ccc(S(=O)(=O)NC(=O)c4cccc(Cl)c4)cc3)CC2)=C(c2ccc(Cl)cc2)C1` [Example 15, 3-chloro-N-([4-[4-[[2-(4-chlorophenyl)-4,4-dimethylcyclohexen-1-yl]methyl]piperazin-1-yl]phenyl]sulfonyl)benzamide], for which the inhibition at 1 µM lay in the range of 50 to 90%.
With `CC1(C)CCC(CN2CCN(c3ccc(S(=O)(=O)NC(=O)c4ccc(COc5ccc(Cl)cc5)c(F)c4)c(Oc4cnc5[nH]ccc5c4)c3)CC2)=C(c2ccc(Cl)cc2)C1` [Example 83, 4-[(4-Chlorophenoxy)methyl]-N-[4-[4-[[2-(4-chlorophenyl)-4,4-dimethylcyclohexen-1-yl]methyl]piperazin-1-yl]-2-(1H-pyrrolo[2,3-b]pyridin-5-yloxy)phenyl]sulfonyl-3-fluorobenzamide], the negative logarithm of the IC50 (pIC50) was 7.00 to 8.00.
On to `COc1cc(-c2nc(C(=O)NS(=O)(=O)c3ccc(N4CCN(CC5=C(c6ccc(Cl)cc6)CC(C)(C)CC5)CC4)cc3Oc3cnc4[nH]ccc4c3)ccc2F)ccn1` [Example 62, N-[4-[4-[[2-(4-Chlorophenyl)-4,4-dimethylcyclohexen-1-yl]methyl]piperazin-1-yl]-2-(1H-pyrrolo[2,3-b]pyridin-5-yloxy)phenyl]sulfonyl-5-fluoro-6-(2-methoxypyridin-4-yl)pyridine-2-carboxamide], for which the negative-log IC50 (pIC50) was 6.00 to 7.00.

Broadly, the pIC50 is the negative decadic logarithm of the IC50, by convention in mol/L. The inhibition is the relative decrease from the control value, in per cent.
